Assay results as given in patent US9260408B2, “Dihydroquinoline-2-one derivatives” (Hoffmann-La Roche Inc., priority 2011, dated 2016).
Where a name gives a salt, the structure may show the parent alone.

Columns and labels:
human CYP11B2 = molecular target: T1, human CYP11B2 (Homo sapiens, UniProt P19099); assay: G-402 cellular enzyme assay, human CYP11B2 (aldosterone release, HTRF); assay type: cell-based; settings: G-402 cells expressing human CYP11B2; 1 μM Deoxycorticosterone
T1 construct: expressed in transfected cells
T1 sequence (P19099 25-503): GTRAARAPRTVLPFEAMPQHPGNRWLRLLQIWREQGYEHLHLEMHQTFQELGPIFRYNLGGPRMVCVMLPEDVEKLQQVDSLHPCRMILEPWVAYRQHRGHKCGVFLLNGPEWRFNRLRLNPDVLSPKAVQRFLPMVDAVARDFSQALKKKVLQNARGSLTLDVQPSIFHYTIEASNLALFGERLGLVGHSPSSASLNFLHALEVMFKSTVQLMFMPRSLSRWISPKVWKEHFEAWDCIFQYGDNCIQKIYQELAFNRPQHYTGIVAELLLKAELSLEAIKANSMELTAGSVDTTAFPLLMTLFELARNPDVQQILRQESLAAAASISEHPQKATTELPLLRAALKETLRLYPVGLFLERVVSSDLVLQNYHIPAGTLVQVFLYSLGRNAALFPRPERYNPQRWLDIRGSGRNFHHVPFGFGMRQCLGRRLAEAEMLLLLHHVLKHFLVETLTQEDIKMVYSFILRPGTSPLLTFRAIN
Description: (§1) Herein we identified the use of the G-402 cell line as a host cell to ectopically express (transiently or stably) enzymes of the CYP11 family. Specifically we developed stable G-402 cells expressing ectopically human CYP11B1, human CYP11B2, human CYP11A1, cynomolgus CYP11B1 or cynomolgus CYP11B2 enzyme activity. Importantly the identified cell line G-402 expresses co-factors (adrenodoxin and adrenodoxin reductase) important for the activity of the CYP11 family and no relevant enzyme activity of the CYP11 family (in comparison to H295R cells) was detected in these cells. Therefore the G-402 cell line is uniquely suited as a host cell for the ectopic expression of enzymes from the CYP11 family.
(§2) G-402 cells can be obtained from ATCC(CRL-1440) and were originally derived from a renal leiomyoblastoma.
(§3) The expression plasmids contains the ORF for either human/cyno CYP11B1 or CYP11B2 under the control of a suitable promoter (CMV-promoter) and a suitable resistance marker (neomycin). Using standard techniques the expression plasmid is transfected into G-402 cells and these cells are then selected for expressing the given resistance markers. Individual cell-clones are then selected and assessed for displaying the desired enzymatic activity using 11-Deoxycorticosterone (Cyp11B2) or 11-Deoxycortisol (Cyp11B1) as a substrate.
(§4) G-402 cells expressing CYP11 constructs were established as described above and maintained in McCoy's 5a Medium Modified, ATCC Catalog No. 30-2007 containing 10% FCS and 400 μg/ml G418 (Geneticin) at 37° C. under an atmosphere of 5% CO2/95% air. Cellular enzyme assays were performed in DMEM/F12 medium containing 2.5% charcoal treated FCS and appropriate concentration of substrate (0.3-10 uM 11-Deoxycorticosterone, 11-Deoxycortisol or Corticosterone). For assaying enzymatic activity, cells were plated onto 96 well plates and incubated for 16 h. An aliquot of the supernatant is then transferred and analyzed for the concentration of the expected product (Aldosterone for CYP11B2; Cortisol for CYP11B1). The concentrations of these steroids can be determined using HTRF assays from CisBio analyzing either Aldosterone or Cortisol.
(§5) Inhibition of the release of produced steroids can be used as a measure of the respective enzyme inhibition by test compounds added during the cellular enzyme assay. The dose dependent inhibition of enzymatic activity by a compound is calculated by means of plotting added inhibitor concentrations (x-axes) vs. measured steroid/product level (y-axes). The inhibition is then calculated by fitting the following 4-parameter sigmoidal function (Morgan-Mercer-Flodin (MMF) model) to the raw data points using the least squares method:
(§6) [formula] wherein, A is the maximum y value, B is the EC50 factor determined using XLFit, C is the minimum y value and D is the slope value.
(§7) EC50 values for compounds claimed herein were tested with the G402-based assay system described. Cyp11B2 enzyme activity was tested in presence of 1 μM Deoxycorticosterone and variable amounts of inhibitors; Cyp11B1 enzyme activity was tested in presence of 1 μM Deoxycortisol and variable amounts of inhibitors.

human CYP11B1 = molecular target: T2, human CYP11B1 (Homo sapiens, UniProt P15538); assay: G-402 cellular enzyme assay, human CYP11B1 (cortisol release, HTRF); assay type: cell-based; settings: G-402 cells expressing human CYP11B1; 1 μM Deoxycortisol
T2 construct: expressed in transfected cells
T2 sequence (P15538 25-503): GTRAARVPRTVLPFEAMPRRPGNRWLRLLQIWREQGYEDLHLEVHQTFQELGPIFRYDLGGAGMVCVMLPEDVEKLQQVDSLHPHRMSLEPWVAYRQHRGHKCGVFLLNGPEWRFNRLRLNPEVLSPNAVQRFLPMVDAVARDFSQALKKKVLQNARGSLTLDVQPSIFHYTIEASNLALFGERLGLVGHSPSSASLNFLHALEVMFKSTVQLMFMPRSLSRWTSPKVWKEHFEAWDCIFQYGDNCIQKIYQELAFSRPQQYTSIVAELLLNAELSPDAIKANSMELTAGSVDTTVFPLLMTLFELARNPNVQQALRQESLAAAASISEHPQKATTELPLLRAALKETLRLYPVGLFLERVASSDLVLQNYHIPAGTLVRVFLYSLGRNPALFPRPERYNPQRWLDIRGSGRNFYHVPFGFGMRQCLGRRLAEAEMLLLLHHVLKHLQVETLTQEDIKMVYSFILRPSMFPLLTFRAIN
Description: as §1, §2, §3, §4, §5, §6, §7

Row | Compound | EC50 (human CYP11B2) | EC50 (human CYP11B1)
1 | CCS(=O)(=O)N1CC[C@H]1COc1cncc(-c2ccc3c(c2)CCC(=O)N3C)c1 [Example 165, 6-[5-((S)-1-Ethanesulfonyl-azetidin-2-ylmethoxy)-pyridin-3-yl]-1-methyl-3,4-dihydro-1H-quinolin-2-one] | 13 nM | 494 nM
2 | Cc1c(-c2cc3c(cc2F)N(C)C(=O)CC3)cncc1C(C)N[S@+]([O-])C(C)(C)C (single isomer, unassigned) [Example 252, (R)-2-Methyl-propane-2-sulfinic acid {(R or S)-1-[5-(7-fluoro-1-methyl-2-oxo-1,2,3,4-tetrahydro-quinolin-6-yl)-4-methyl-pyridin-3-yl]-ethyl}-amide] | 26 nM | 468 nM
3 | CN1C(=O)CCc2cc(-c3cncc(C4(N(C)C(=O)c5ncccc5Cl)CC4)c3)ccc21 [Example 201, 3-Chloro-pyridine-2-carboxylic acid methyl-{1-[5-(1-methyl-2-oxo-1,2,3,4-tetrahydro-quinolin-6-yl)-pyridin-3-yl]-cyclopropyl}-amide] | 24 nM | 436 nM
4 | CCNC[C@@H]1CCCN1c1cncc(-c2ccc3c(c2)CCC(=O)N3C)c1 [Example 9, 6-[5-((S)-2-Ethylaminomethyl-pyrrolidin-1-yl)-pyridin-3-yl]-1-methyl-3,4-dihydro-1H-quinolin-2-one] | 829 nM | > 10000 nM
5 | CN1C(=O)CCc2cc(-c3cncc(CNC(=O)c4cnoc4C4CC4)c3)ccc21 [Example 107] | 2 nM | 44 nM
6 | CCS(=O)(=O)NCc1cncc(-c2ccc3c(c2)C(C)(C)CC(=O)N3C)c1 [Example 17] | 4650 nM | > 10000 nM
7 | CN1C(=O)CCc2cc(-c3cncc(O[C@H]4CC[C@H](N)CC4)c3)ccc21 [Example 71, 6-[5-((trans)-4-amino-cyclohexyloxy)-pyridin-3-yl]-1-methyl-3,4-dihydro-1H-quinolin-2-one hydrochloride] | 81 nM | 2500 nM
8 | CC(=O)N1CC[C@H](Oc2cncc(-c3ccc4c(c3)CCC(=O)N4C)c2)C1 [Example 254, 6-[5-((S)-1-Acetyl-pyrrolidin-3-yloxy)-pyridin-3-yl]-1-methyl-3,4-dihydro-1H-quinolin-2-one] | 1 nM | 49 nM
9 | CN1C(=O)CCc2cc(-c3cncc(CN4CCCCS4(=O)=O)c3)ccc21 [Example 44, 6-[5-(1,1-Dioxo-1λ^6-[1,2]thiazinan-2-ylmethyl)-pyridin-3-yl]-1-methyl-3,4-dihydro-1H-quinolin-2-one] | 5 nM | 568 nM
10 | CN1C(=O)CCc2cc(-c3cncc(OCCN4CCCS4(=O)=O)c3)ccc21 [Example 189, 6-{5-[2-(1,1-Dioxo-1λ^6-isothiazolidin-2-yl)-ethoxy]-pyridin-3-yl}-1-methyl-3,4-dihydro-1H-quinolin-2-one] | 2 nM | 93 nM
11 | CCS(=O)(=O)NCc1cncc(-c2cc(Cl)c3c(c2)CCC(=O)N3C)c1 [Example 209, Ethanesulfonic acid [5-(8-chloro-1-methyl-2-oxo-1,2,3,4-tetrahydro-quinolin-6-yl)-pyridin-3-ylmethyl]-amide] | 162 nM | 7540 nM
12 | CCS(=O)(=O)N(Cc1cncc(-c2ccc3c(c2)CCC(=O)N3C)c1)C(C)C [Example 184, Ethanesulfonic acid isopropyl-[5-(1-methyl-2-oxo-1,2,3,4-tetrahydro-quinolin-6-yl)-pyridin-3-ylmethyl]-amide] | 227 nM | 9740 nM
13 | CN1C(=O)CCc2cc(-c3cncc(OC[C@@H]4CCN4)c3)ccc21 [Example 63, 6-[5-((S)-1-Azetidin-2-ylmethoxy)-pyridin-3-yl]-1-methyl-3,4-dihydro-1H-quinolin-2-one] | 731 nM | 16000 nM
14 | CN1C(=O)CCc2cc(-c3cncc(NCCO)n3)ccc21 [Example 24] | 7 nM | 220 nM
15 | CN1C(=O)CCc2cc(-c3cncc(OC[C@@H]4CCCN4C(=O)OC(C)(C)C)c3)ccc21 [Example 51, (S)-2-[5-(1-Methyl-2-oxo-1,2,3,4-tetrahydro-quinolin-6-yl)-pyridin-3-yloxymethyl]-pyrrolidine-1-carboxylic acid tert-butyl ester] | 32 nM | 1870 nM
16 | Cc1c(CN)cncc1-c1cc2c(cc1F)N(C)C(=O)CC2 [Example 226, 6-(5-Aminomethyl-4-methyl-pyridin-3-yl)-7-fluoro-1-methyl-3,4-dihydro-1H-quinolin-2-one hydrochloride] | 11 nM | 1770 nM
17 | CCS(=O)(=O)N1CCC[C@H]1COc1cncc(-c2ccc3c(c2)CCC(=O)N3C)c1 [Example 167, 6-[5-((S)-1-Ethanesulfonyl-pyrrolidin-2-ylmethoxy)-pyridin-3-yl]-1-methyl-3,4-dihydro-1H-quinolin-2-one] | 18 nM | 898 nM
18 | CN(Cc1cncc(-c2cc(Cl)c3c(c2)CCC(=O)N3)c1)C(=O)c1ncccc1Cl [Example 216, 3-Chloro-pyridine-2-carboxylic acid [5-(8-chloro-2-oxo-1,2,3,4-tetrahydro-quinolin-6-yl)-pyridin-3-ylmethyl]-methyl-amide] | 42 nM | 879 nM
19 | CCS(=O)(=O)N(C)CCOc1cncc(-c2ccc3c(c2)CCC(=O)N3C)c1 [Example 195, Ethanesulfonic acid methyl-{2-[5-(1-methyl-2-oxo-1,2,3,4-tetrahydro-quinolin-6-yl)-pyridin-3-yloxy]-ethyl}-amide] | 1 nM | 56 nM
20 | CN1C(=O)CCc2cc(-c3cncc(C(C)(C)N)c3)ccc21 [Example 72, 6-[5-(1-Amino-1-methyl-ethyl)-pyridin-3-yl]-1-methyl-3,4-dihydro-1H-quinolin-2-one] | 7 nM | 101 nM
21 | CN1C(=O)CCc2cc(-c3cncc(OCCN)c3)c(F)cc21 [Example 238, 6-[5-(2-Amino-ethoxy)-pyridin-3-yl]-7-fluoro-1-methyl-3,4-dihydro-1H-quinolin-2-one hydrochloride] | 5 nM | 513 nM
22 | CN1C(=O)CCc2cc(-c3cncc(O[C@H]4CCCN(C(=O)OC(C)(C)C)C4)c3)ccc21 [Example 49, (S)-3-[5-(1-Methyl-2-oxo-1,2,3,4-tetrahydro-quinolin-6-yl)-pyridin-3-yloxy]-piperidine-1-carboxylic acid tert-butyl ester] | 271 nM | 1000 nM
23 | Cc1noc(C)c1S(=O)(=O)NCc1cncc(-c2ccc3c(c2)CCC(=O)N3C)c1 [Example 154, 3,5-Dimethyl-isoxazole-4-sulfonic acid [5-(1-methyl-2-oxo-1,2,3,4-tetrahydro-quinolin-6-yl)-pyridin-3-ylmethyl]-amide] | 114 nM | 1430 nM
